# Where a name gives a salt, the structure may show the parent alone.
# Biological target: T1, cGMP-PDE prepared from porcine aorta (Sus scrofa, UniProt A0A287B475)
# T1 construct: Porcine aorta was cut into small pieces; from tissue; host or cells: porcine aorta, 100,000 x g supernatant, DEAE-Toyopearl 650S fraction
# Test: Inhibitory Activity Against cGMP-PDE Prepared from Porcine Aorta
# Type: biochemical
# Conditions: CaM-independent cGMP-PDE fraction; 1 μM cGMP substrate; 1 mM EGTA; DMSO 4% or below
# Description: Inhibitory Activity Against cGMP-PDE Prepared from Porcine Aorta The enzymatic activity of cGMP-PDE prepared from porcine aorta was determined by the method of Thompson et al. This determination was conducted in the presence of 1 mM EGTA by the use of 1 μM cGMP as the substrate. The compound of the present invention was added to the reaction system in a state dissolved in DMSO to determine its inhibitory activity. The final DMSO concentration of the reaction system was adjusted to 4% or below. The above cGMP-PDE was prepared as follows: Porcine aorta was cut into small pieces, followed by the addition of 10 times (by volume) as much buffer A [comprising Tris/HCl (20 mM), magnesium acetate (2 mM), dithiothreitol (1 mM), EDTA (5 mM), aprotinin (1400TIU/l),leupeptin (10 mg/l), benzamidine (1 mM) and PMSF (0.2 mM) and having a pH of 7.5]. The resulting mixture was homogenated and centrifuged at 100,000×g for one hour. The obtained supernatant was adsorbed on a column packed with DEAE-Toyopearl 650S (Tosoh, Tokyo, Japan). The resulting column was washed with buffer B [comprising Tris/HCl (50 mM), EGTA (0.1 mM), magnesium acetate (2 mM), dithiothreitol (1 mM) and PMSF (0.2 mM) and having a pH of 7.5] and thereafter subjected to gradient elution with 0.05 to 0.4M sodium chloride to give a CaM-independent cGMP-PDE fraction. The compounds of the present invention were examined for cGMP-PDE inhibitory activity by the above method and the results are given in Table 1.
row,IC50,Compound
1,0.0099 µM,"Clc1nc(NCc2ccc3c(c2)OCO3)c2cc(-n3cccn3)ccc2n1 [Example 1, 2-Chloro-4-(3,4-methylenedioxybenzyl)amino-6-(pyrazol-1-yl)quinazoline]"
2,1.13 µM,"CCOC(=O)C1CCN(c2nc(NCc3ccc4c(c3)OCO4)c3cc(N)ccc3n2)CC1 [Example 12, 2-(4-Ethoxycarbonylpiperidino)-4-(3,4-methylenedioxybenzyl)amino-6-aminoquinazoline dihydrochloride]"
3,1.22 µM,"Clc1nc(NCc2ccc3c(c2)OCO3)c2cc(N3CCCCC3)ccc2n1 [Example 4, 2-Chloro-4-(3,4-methylenedioxybenzyl)amino-6-piperidinoquinazoline]"
4,0.00527 µM,"O=[N+]([O-])c1ccc2nc(Cl)nc(NCc3ccc4c(c3)OCO4)c2c1 [Example 3, 2-Chloro-4-(3,4-methylenedioxybenzyl)amino-6-nitroquinazoline]"
5,0.72 µM,"c1cn(-c2ccc3ncnc(NCc4ccc5c(c4)OCO5)c3c2)cn1 [Example 14, 4-(3,4-Methylenedioxybenzyl)amino-6-(imidazol-1-yl)quinazoline]"
6,0.148 µM,"CCOC(=O)C1CCN(c2nc(NCc3ccc4c(c3)OCO4)c3cc(N(C)C)ccc3n2)CC1 [Example 7, 2-(4-Ethoxycarbonylpiperidino)-4-(3,4-methylenedioxybenzyl)amino-6-dimethylaminoquinazoline]"
7,0.403 µM,"COc1ccc(CNc2ncnc3ccc(-n4cnc(C)c4)cc23)cc1Cl [Example 17, 4-(3-Chloro-4-methoxybenzyl)amino-6-(4-methylimidazol-1-yl)quinazoline]"
8,0.00076 µM,"O=C(O)C1CCN(c2nc(NCc3ccc4c(c3)OCO4)c3cc([N+](=O)[O-])ccc3n2)CC1 [Example 11, 2-(4-Carboxypiperidino)-4-(3,4-methylenedioxybenzyl)amino-6-nitroquinazolin]"
9,0.0334 µM,"Clc1nc(NCc2ccc3c(c2)OCO3)c2cc(-n3ccnc3Cl)ccc2n1 [Example 5, 2-Chloro-4-(3,4-methylenedioxybenzyl)amino-6-(2-chloroimidazol-1-yl)quinazoline]"
10,0.12 µM,"CN(C)c1ccc2nc(Cl)nc(NCc3ccc4c(c3)OCO4)c2c1 [Example 2, 2-Chloro-4-(3,4-methylenedioxybenzyl)amino-6-dimethylaminoquinazoline]"
11,0.00809 µM,"CCOC(=O)C1CCN(c2nc(NCc3ccc4c(c3)OCO4)c3cc(-n4cccn4)ccc3n2)CC1 [Example 6, 2-(4-Ethoxycarbonylpiperidino)-4-(3,4-methylenedioxybenzyl)amino-6-(pyrazol-1-yl)quinazoline hydrochloride]"
12,0.0187 µM,"CN(C)c1ccc2nc(N3CCC(C(=O)O)CC3)nc(NCc3ccc4c(c3)OCO4)c2c1 [Example 10, 2-(4-Carboxypiperidino)-4-(3,4-methylenedioxybenzyl)amino-6-dimethylaminoquinazoline]"
13,0.00729 µM,O=C(O)C1CCN(c2nc(NCc3ccc4c(c3)OCO4)c3cc(-c4nnn[nH]4)ccc3n2)CC1 [Example 13]
14,0.00148 µM,"O=C(O)C1CCN(c2nc(NCc3ccc4c(c3)OCO4)c3cc(-n4cccn4)ccc3n2)CC1 [Example 9, 2-(4-Carboxypiperidino)-4-(3,4-methylenedioxybenzyl)amino-6-(pyrazol-1-yl)quinazoline]"
15,0.0035 µM,"CCOC(=O)C1CCN(c2nc(NCc3ccc4c(c3)OCO4)c3cc([N+](=O)[O-])ccc3n2)CC1 [Example 8, 2-(4-Ethoxycarbonylpiperidino)-4-(3,4-methylenedioxybenzyl)amino-6-dimethylnitroquinazoline]"
16,0.36 µM,"c1nc(NCc2ccc3c(c2)OCO3)c2cc(-n3cncn3)ccc2n1 [Example 15, 4-(3,4-Methylenedioxybenzyl)amino-6-(1,2,4-triazol-1-yl)quinazoline]"
